Assay results: patent US20080221150A1, “Prevention of Neurodegeneration by Macrolide Antibiotics” (priority 2005, published 2008)
“Also recorded” adds a separate entry of the source.

What was measured:
caspase-3-like activity = experiment: Caspase-3-like activity via fluorogenic DEVD cleavage assay in CGNs; assay type: cell-based, mice
Experimental: (§1) Cerebellar granule neurons (CGNs) were isolated from postnatal day 7 mice as previously described^40. CGNs were plated in poly-L-lysine coated plates at a density of 1250 cells per mm^2. 48 well plates were used for viability and caspase activity assays; 100 mm dishes were used for western blot analysis; and 4 well […] chamber slides (Agene) were used for analysis of vacuolar acidification.
(§2) CGNs were treated in vitro on day 4. […] Separate cultures of CGNs were also treated for 24 h with staurosporine (0.1 μM), in the presence or absence of BafA1 (1-10 nM final).
(§3) Cell viability (via Calcein AM fluorogenic conversion assay; Molecular Probes, Eugene, Oreg.) and caspase-3-like activity (via fluorogenic DEVD cleavage assay) were performed as previously described 40 and were expressed relative to untreated controls.

[1] = test system: cerebellar granule neurons (CGNs); experiment: Cell viability via Calcein AM fluorogenic conversion assay; details: for effect on staurosporine-induced decrease in viability: 1 nM bafilomycin A1 + 0.1 μM staurosporine; for chloroquine-induced decrease in viability / cell death: 1 nM macrolide + 20 μM chloroquine
Experimental: as §1, §2, §3

vacuolar ATPase = details: cited from earlier work
acidic vesicles = experiment: Labeling of acidic vesicles in CGNs with Lysotracker Red (LTR); assay type: cell-based, mice
Experimental: as §1, §2
(§4) Conditioned media was removed from CGNs grown in 4 well, permanox chamber slides. LTR (0.05 μM; Molecular Probes, Eugene, Oreg.) and Calcein AM (2.5 μg/ml; Molecular Probes, Eugene, Oreg.) were prepared in Locke's Buffer and added to each well for 30 min, 37° C. After this incubation the cells were washed with Locke's Buffer and cover-slipped. Images were captured using a Carl Zeiss Axioskop microscope equipped with epifluorescence.

[2] = test system: cerebellar granule neurons (CGNs); experiment: Viable CGNs by viability marker calcein AM during LTR labeling; assay type: cell-based, mice; details: 24 h
Experimental: as §1, §2, §4

LC3 = experiment: Western blot of LC3 processing (LC3-I, LC3-II) in CGN lysates; assay type: cell-based, mice
Experimental: as §1, §2
(§5) Cells were detached from their substrate by incubation for 5 min at 37° C. with Accutase (Innovative Cell Technologies, San Diego, Calif.). Conditioned media and cells were centrifuged (700×g, 5 min, 4° C.). The supernatant was aspirated and re-suspended with 1 ml ice-cold PBS, then centrifuged again (700×g, 5 min, 4° C.). The resultant pellet was re-suspended in lysis buffer containing 25 mM HEPES, 5 mM EDTA, 5 mM MgCl2, 1% SDS, 1% Triton X-100, 1 mM PMSF, 1% protease inhibitor cocktail and 1% phosphatase inhibitor cocktail (Sigma). Cell lysates were sonicated to shear DNA and then centrifuged (10,000 rpm, 10 min, 4° C.), and the resultant supernatant (cleared whole cell lysates) was transferred to a fresh tube. Protein levels were determined subsequently via BCA assay (Pierce). Equal amounts of protein were resolved via SDS-PAGE and transferred to PVDF. After transfer blots were cut in half at approximately 37 kDa. […] Blots were blocked for 1 h, RT (5% milk), followed by overnight incubation with primary antibody. Blots were washed with 1×TBS containing 0.1% Tween 20, then incubated with secondary antibody (goat anti-rabbit IgG, Biorad) for 1 h, RT and subsequently washed. Signal was detected using Supersignal chemiluminescence (Pierce). After detection of cleaved caspase-3, the bottom blot was stripped using Restore Western Blot stripping buffer (Pierce) then probed with rabbit anti-LC3 (provided by Uchiyama laboratory), using the same western blot protocol as described above. Blots were scanned for densitometric analysis using Biorad Quantity One® software.

cleaved caspase-3 = experiment: Western blot of cleaved caspase-3 in CGN lysates; assay type: cell-based, mice
Experimental: as §1, §2
as §5, with “After detection of cleaved caspase-3, the bottom blot was stripped using Restore Western Blot stripping buffer (Pierce) then probed with rabbit anti-LC3 (provided by Uchiyama laboratory), using the same western blot protocol as described above.” left out

p18 Bax = experiment: Western blot of p18 Bax in CGNs; assay type: cell-based, mice
Experimental: as §1
CGNs were treated in vitro on day 4. […]
Cells were detached from their substrate by incubation for 5 min at 37° C. with Accutase (Innovative Cell Technologies, San Diego, Calif.). Conditioned media and cells were centrifuged (700×g, 5 min, 4° C.). The supernatant was aspirated and re-suspended with 1 ml ice-cold PBS, then centrifuged again (700×g, 5 min, 4° C.). The resultant pellet was re-suspended in lysis buffer containing 25 mM HEPES, 5 mM EDTA, 5 mM MgCl2, 1% SDS, 1% Triton X-100, 1 mM PMSF, 1% protease inhibitor cocktail and 1% phosphatase inhibitor cocktail (Sigma). Cell lysates were sonicated to shear DNA and then centrifuged (10,000 rpm, 10 min, 4° C.), and the resultant supernatant (cleared whole cell lysates) was transferred to a fresh tube. Protein levels were determined subsequently via BCA assay (Pierce). […] Signal was detected using Supersignal chemiluminescence (Pierce). […] Blots were scanned for densitometric analysis using Biorad Quantity One® software.

in vitro = details: mouse
Experimental: as §1, §2, §3

Bid = experiment: Cleavage of Bid in CGNs; assay type: cell-based, mice; details: chloroquine; data not shown
[3] = + chloroquine 20 μM for 24 hours, wild-type CGNs
[4] = 10 nM bafilomycin A1, 24 hours, Bax deficiency
[5] = bafilomycin A1 by itself, 24 hours
[6] = co-addition with 20 μM chloroquine, 24 hours
[7] = all concentrations of bafilomycin A1 tested + 20 μM chloroquine, 24 hours
[8] = 10 nM bafilomycin A1 by itself, 24 hours
[9] = bafilomycin A1 0.3-10 nM + 20 μM chloroquine, 24 hours

COC(=O)CC(NC(=O)OC(C)(C)C)C(=O)CF (stereo not shown) [BOC-aspartyl(Ome)-fluoromethyl ketone, reference compound]
effect on chloroquine-induced increase in caspase-3-like activity (caspase-3-like activity; [3]): significantly attenuate | effect on chloroquine-induced death [1, 3]: did not attenuate

CO/C1=C\C(C)=C\[C@@H](C)[C@@H](O)[C@@H](C)C/C(C)=C/C=C/[C@H](OC)[C@@H]([C@@H](C)[C@@H](O)[C@H](C)[C@@]2(O)C[C@@H](O)[C@H](C)[C@@H](C(C)C)O2)OC1=O [bafilomycin A1]
concentrations reported to inhibit vacuolar ATPase (vacuolar ATPase): greater than 1 nM | reduction of chloroquine-induced caspase-3-like activity (caspase-3-like activity; 1 nM bafilomycin A1 + 20 μM chloroquine, 24 hours, maximal): 3 fold | increase in caspase-3-like activity in Bax-deficient CGNs (caspase-3-like activity; [4]): prevented | concentrations that did not induce caspase-3-like activity (caspase-3-like activity; [5]): ≤ 1 nM | concentrations that increased caspase-3-like activity (caspase-3-like activity; [5]): ≥ 10 nM | concentrations that reduced chloroquine-induced increase in caspase-3-like activity (caspase-3-like activity; [6]): 0.3 to 1 nM | LTR staining (acidic vesicles; 1 nM bafilomycin A1 + 20 μM chloroquine, 24 h, versus either alone): increase in LTR staining intensity | LTR staining / vacuolar acidification (acidic vesicles; 1 nM bafilomycin A1 by itself, 24 h): did not alter the staining pattern of LTR; also recorded: did not alter vacuolar acidification | LTR staining / vacuolar acidification (acidic vesicles; 10 nM bafilomycin A1, presence or absence of chloroquine, 24 h): prevented any detection of vacuolar acidification by LTR; also recorded: completely prevents LTR staining | numbers of viable neurons ([2]; 1 nM bafilomycin A1 + 20 μM chloroquine): increased numbers of viable neurons | viability by calcein AM ([2]; 1 nM bafilomycin A1 by itself): nor did it reduce viability | numbers of viable CGNs ([2]; 10 nM bafilomycin A1, presence or absence of chloroquine): decreased numbers of viable CGNs | effect on staurosporine-induced decrease in viability ([1]; 24 hours): not altered | effect on staurosporine-induced decrease in viability ([1]; 24 hours, listed as Bafilomycin A1): did not prevent the decrease in viability | viability ([1]; 1 nM bafilomycin A1 + 20 μM chloroquine, 24 hours): 88% | viability ([1]; 10 nM bafilomycin A1 + 0.1 μM staurosporine, 24 hours): 20% | reduction in viability in Bax-deficient CGNs [1, 4]: prevented | chloroquine-induced decrease in viability ([1]; 10-100 nM bafilomycin A1 + 20 μM chloroquine, 24 hours): still attenuated; also recorded: inhibited chloroquine-induced death | chloroquine-induced decrease in viability [1, 7]: significantly attenuated | concentrations that did not decrease viability [1, 5]: ≤ 1 nM | concentrations that significantly decreased viability [1, 5]: ≥ 10 nM | concentration of maximal attenuation of chloroquine-induced decrease in viability [1, 6]: 1 nM | levels of LC3-II (LC3; [8]): dramatic increase | ratio of LC3-II/LC3-I (LC3; [8]): increase | ratio of LC3-II to LC3-I (LC3; [7]): reduction | chloroquine-induced levels of LC3-II (LC3; [9]): did not attenuate | levels of LC3-I (LC3; [9]): appeared to increase | levels of LC3-I (LC3; bafilomycin A1 by itself, any concentration, 24 hours): did not change | concentration at which increase in cleaved caspase-3 was apparent (cleaved caspase-3; [5]): 10 nM | concentrations that attenuated chloroquine-induced increase in cleaved caspase-3 (cleaved caspase-3; co-treatment with 20 μM chloroquine, 24 hours): ≤ 1 nM | increase in p18 Bax levels (p18 Bax; 1 nM bafilomycin A1 with chloroquine 20 μM, 24 hours): inhibits the increase in p18 Bax levels; also recorded: dramatically attenuated

CO/C1=C\C(C)=C\[C@@H](C)[C@@H](O)[C@@H](C)C/C(C)=C/C=C/[C@H](OC)[C@@H]([C@@H](C)[C@@H](O)[C@H](C)[C@@]2(O)C[C@@H](OC(=O)/C=C/C(=O)NC3=C(O)CCC3=O)[C@H](C)[C@@H](C(C)C)O2)OC1=O [bafilomycin B1]
chloroquine-induced decrease in viability / cell death ([1]; data not shown): inhibited chloroquine induced cell death | chloroquine-induced decrease in viability / cell death ([1]; data not shown, listed as Bafilomycin B1): attenuated

CCN(CC)CCCC(C)Nc1ccnc2cc(Cl)ccc12 (stereo not shown) [chloroquine, reference compound]
LTR staining (acidic vesicles; 20 μM chloroquine, 24 hours, surviving CGNs versus control): greater intensity of LTR staining | viability at 8 h, 20 μM (in vitro): 93% | viability at 24 h, 20 μM (in vitro): 24% | viability at 24 h, 40 μM (in vitro): 8% | levels of LC3-I (LC3; 20 μM chloroquine, 24-48 hours, versus control): appeared lower | chloroquine-induced increase in LC3-II in Bax-deficient CGNs (LC3; 20 μM chloroquine, 24 hours, Bax deficiency): did not prevent | time to elevation of LC3-II (LC3; 20 μM chloroquine, remained high through 48 hours): ≤ 4 h | cleavage of Bid (Bid): not increased | cleaved caspase-3 temporal pattern (cleaved caspase-3; 20 μM chloroquine, 4-48 hours): most robust at 16 hours | amount of p18 Bax (p18 Bax; chloroquine 20 μM for 24 hours): increased

C/C=C/[C@H]1O[C@@](O)([C@@H](C)[C@H](O)[C@H](C)[C@H]2OC(=O)/C(OC)=C/C(C)=C/[C@@H](C)[C@@H](O)[C@@H](CC)[C@@H](O)[C@H](C)C/C(C)=C/C=C/[C@@H]2OC)C[C@@H](O)[C@@H]1C [concanamycin]
chloroquine-induced decrease in viability / cell death ([1]; data not shown): inhibited chloroquine induced cell death

C[C@@H]1C[C@@H]([C@H](O)CC2CC(=O)NC(=O)C2)C(=O)[C@@H](C)C1 [cycloheximide, reference compound]
effect on magnitude of cell death induced by chloroquine ([1]; cycloheximide 0.1-1 mg/ml with chloroquine, data not shown): did not alter

CN[C@@H]1C[C@H]2O[C@@](C)([C@@H]1OC)n1c3ccccc3c3c4c(c5c6ccccc6n2c5c31)C(=O)NC4 [staurosporine, reference compound]
caspase-3-like activity (caspase-3-like activity; 0.1 μM staurosporine, data not shown): significantly increases | viability at 24 h, 0.1 μM (in vitro): 44%
